Each structure is given as a SMILES string.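 Method: 48-hour compound exposure of cells in 96-well plates, five concentrations, linear interpolation of endpoints. GI50 = concentration required for 50% inhibition of growth.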 The source made the active and inactive calls. No stated cut-off is given here; in the data, active = GI50 up to about 1.1 µM and inactive = higher.

Among the test systems are SK-MEL-2; OVCAR-3; SNB-78; HOP-62; OVCAR-8; TK-10; SNB-75; M19-MEL; RXF 393; KM12; EKVX; OVCAR-5; KM-20L2; CCRF-CEM; UO-31; U-251; NCI-H226; LXFL 529; SN12C; CAKI-1.
Test in all cases: NCI tumour cell line growth inhibition, 48 h

On to `O=C(Nc1cccc([N+](=O)[O-])c1)C(=O)C(C(=O)c1ccccc1-c1ccccc1)C1OC(=O)c2ccccc21` (stereo not drawn), for which the GI50 with SK-MEL-2 is 17.9 µM (inactive); in the test with OVCAR-3, 15.4 µM (inactive); in the test on SNB-78 it was 23.2 µM (inactive); in the test on HOP-62, 16.6 µM (inactive); in the test with OVCAR-8 it was 22.3 µM (inactive); with TK-10, 30.4 µM (inactive). Besides, the GI50 in the test with SNB-75 is 22.9 µM (inactive); in the test with M19-MEL, 15.9 µM (inactive); in the test with RXF 393, 13.3 µM (inactive); in the test on KM12, 20 µM (inactive); with EKVX, 25.6 µM (inactive); with OVCAR-5, 22 µM (inactive). The GI50 is 23.3 µM (inactive) with KM-20L2; 22.9 µM (inactive) in the test with CCRF-CEM; 20.2 µM (inactive) in the test on UO-31; 13.4 µM (inactive) in the test on U-251; 5.96 µM (inactive) in the test on NCI-H226; 13.1 µM (inactive) in the test on LXFL 529.

`COc1ccc(C(=O)O)c(Br)c1OCc1ccccc1`: the GI50 with SN12C is 92.5 µM (inactive); in the test with SK-MEL-2, > 100 µM (inactive); with OVCAR-3 it was > 100 µM (inactive); in the test on SNB-78 it was > 100 µM (inactive); with HOP-62, > 100 µM (inactive); with OVCAR-8, > 100 µM (inactive). For the same compound, the GI50 in the test on TK-10, in the test with SNB-75, with M19-MEL, with RXF 393, in the test with KM12 and with EKVX was > 100 µM (inactive) each time. For the same compound, the GI50 was > 100 µM (inactive) in the test with OVCAR-5; > 100 µM (inactive) in the test with KM-20L2; > 100 µM (inactive) in the test with CCRF-CEM; 88.3 µM (inactive) in the test with UO-31; > 100 µM (inactive) in the test on U-251; > 100 µM (inactive) in the test with NCI-H226. Besides, the GI50 in the test with LXFL 529 is > 100 µM (inactive).

In the case of `COC1CC(OS(=O)(=O)c2ccc(C)cc2)C(OS(=O)(=O)c2ccc(C)cc2)C(COS(=O)(=O)c2ccc(C)cc2)O1` (stereo not drawn), the GI50 in the test on SN12C is 3.96 µM (inactive); in the test on SK-MEL-2, 6.85 µM (inactive); with OVCAR-3, 1.89 µM (inactive); with SNB-78, 5.46 µM (inactive); in the test with HOP-62, 2.18 µM (inactive); in the test with OVCAR-8, 1.82 µM (inactive). Moreover, the GI50 with CAKI-1 was 2.72 µM (inactive); in the test on SNB-75, 0.535 µM (active); in the test on M19-MEL it was 7.38 µM (inactive); in the test with RXF 393, 1.71 µM (inactive); with KM12, 52 µM (inactive); in the test on EKVX, 11.2 µM (inactive). For the same compound, the GI50 in the test on OVCAR-5 is 11.3 µM (inactive); with KM-20L2, 12.9 µM (inactive); in the test with CCRF-CEM, 74.3 µM (inactive); with UO-31, 3.76 µM (inactive); with U-251, 3.01 µM (inactive); in the test with NCI-H226 it was 3.23 µM (inactive). Further, the GI50 with LXFL 529 is 5.77 µM (inactive).

Turning to `COc1cc2c(c3c1C=CCO3)C(=O)c1ccccc1C2=O`, the GI50 in the test on SN12C was 43.9 µM (inactive); in the test with SK-MEL-2, > 100 µM (inactive); in the test with OVCAR-3, 42.8 µM (inactive); in the test with SNB-78, > 100 µM (inactive); with HOP-62, 41.3 µM (inactive); with OVCAR-8, 40.8 µM (inactive). For the same compound, the GI50 with TK-10 is 50.4 µM (inactive); with SNB-75, 51.1 µM (inactive); in the test with M19-MEL it was 76.6 µM (inactive); with RXF 393, > 100 µM (inactive); with KM12, 30.3 µM (inactive); in the test on EKVX, > 100 µM (inactive). Also, the GI50 with OVCAR-5 was > 100 µM (inactive); in the test with KM-20L2 it was 59.4 µM (inactive); in the test with CCRF-CEM, 22 µM (inactive); with UO-31, 29.5 µM (inactive); in the test on U-251, 30.8 µM (inactive); in the test on NCI-H226, 32.2 µM (inactive). Further, the GI50 in the test on LXFL 529 was 31.2 µM (inactive).

Consider `Cc1ccc(C[P+]2(c3ccccc3)CCCCC2)cc1.[O-][Cl+3]([O-])([O-])[O-]`, for which the GI50 is 37.6 µM (inactive) in the test on SN12C; 30.9 µM (inactive) in the test with SK-MEL-2; 10 µM (inactive) with OVCAR-3; 25.9 µM (inactive) in the test on SNB-78; 99.8 µM (inactive) in the test on HOP-62; 20.6 µM (inactive) in the test with OVCAR-8. Further, the GI50 in the test on TK-10 was 51.2 µM (inactive); in the test with SNB-75, 24.4 µM (inactive); in the test with M19-MEL, 15.7 µM (inactive); with RXF 393, > 100 µM (inactive); with KM12, 28.5 µM (inactive); in the test on EKVX, 43.9 µM (inactive). For the same compound, the GI50 was 55.2 µM (inactive) in the test with OVCAR-5; 31.2 µM (inactive) with KM-20L2; 38 µM (inactive) in the test on CCRF-CEM; > 100 µM (inactive) with UO-31; 12.5 µM (inactive) in the test with U-251; 48.1 µM (inactive) in the test with NCI-H226. Also, the GI50 in the test with LXFL 529 was 14 µM (inactive).

Regarding `COC(=O)C(C#CCCCCC#CC(NC(=O)OCc1ccccc1)(C(=O)OC)C(F)(F)F)(NC(=O)OCc1ccccc1)C(F)(F)F` (stereo not drawn), the GI50 with SN12C, in the test on OVCAR-3, in the test on SNB-78, in the test on HOP-62, with OVCAR-8 and in the test with TK-10 was > 100 µM (inactive) throughout. The GI50 in the test with CAKI-1, in the test on SNB-75, in the test on M19-MEL, with RXF 393, with KM12 and in the test with EKVX was > 100 µM (inactive) in each case. Also, the GI50 in the test with OVCAR-5 was > 100 µM (inactive); in the test on KM-20L2, > 100 µM (inactive); in the test with CCRF-CEM, > 100 µM (inactive); in the test on UO-31, 7.45 µM (inactive); in the test on U-251 it was > 100 µM (inactive); in the test with NCI-H226, > 100 µM (inactive). Besides, in the test with LXFL 529, the GI50 was > 100 µM (inactive).

For the compound `CCN(CC)CC(C)C(=O)/C=C/c1ccc(C)cc1` (stereo not drawn), the GI50 is 1.63 µM (inactive) in the test with SN12C; 4.2 µM (inactive) with OVCAR-3; 4.59 µM (inactive) with SNB-78; 18.4 µM (inactive) in the test with HOP-62; 2.07 µM (inactive) in the test with OVCAR-8; 2.03 µM (inactive) in the test with TK-10. The GI50 in the test on CAKI-1 was 1.22 µM (inactive); with SNB-75, 1.66 µM (inactive); in the test on M19-MEL it was 1.67 µM (inactive); with RXF 393 it was 2.19 µM (inactive); with KM12 it was 0.502 µM (active); in the test on EKVX, 13.8 µM (inactive). Further, the GI50 was 14.8 µM (inactive) in the test on OVCAR-5; 10 µM (inactive) in the test with KM-20L2; 3.05 µM (inactive) with CCRF-CEM; 13.5 µM (inactive) in the test with UO-31; 1.76 µM (inactive) with U-251; 16.6 µM (inactive) with NCI-H226. For the same compound, in the test on LXFL 529, the GI50 is 1.76 µM (inactive).

`CCCCCc1cc(OC(=O)c2c(O)cc(OC)cc2CCCCC)cc(O)c1C(=O)O`: the GI50 in the test on SN12C was 15.9 µM (inactive); in the test with SK-MEL-2, 16.8 µM (inactive); in the test with SNB-78, 30.9 µM (inactive); with HOP-62 it was 16.4 µM (inactive); in the test on OVCAR-8, 18.2 µM (inactive); in the test with TK-10, 18.6 µM (inactive). For the same compound, the GI50 is 19.1 µM (inactive) with CAKI-1; 17.2 µM (inactive) in the test on SNB-75; 18.4 µM (inactive) in the test with M19-MEL; 16 µM (inactive) in the test on RXF 393; 17.3 µM (inactive) with KM12; 19 µM (inactive) with EKVX. In addition, the GI50 with OVCAR-5 was 19.1 µM (inactive); with KM-20L2, 18.5 µM (inactive); in the test with CCRF-CEM it was 20.7 µM (inactive); in the test on UO-31 it was 13.6 µM (inactive); with U-251 it was 15.2 µM (inactive); in the test on LXFL 529, 16.5 µM (inactive).

For `CCSCN(C)c1nc(N(C)C)nc(N(C)C)n1`, the GI50 with SN12C is 77.6 µM (inactive); with SK-MEL-2, > 100 µM (inactive); in the test with OVCAR-3, 38.3 µM (inactive); in the test with SNB-78 it was > 100 µM (inactive); in the test with HOP-62, 98.2 µM (inactive); in the test on OVCAR-8 it was 81.5 µM (inactive). Moreover, the GI50 in the test on TK-10 is > 100 µM (inactive); in the test with CAKI-1, 68.2 µM (inactive); in the test on SNB-75, 59 µM (inactive); in the test on M19-MEL it was 64 µM (inactive); in the test on RXF 393 it was 14.2 µM (inactive); with KM12, 35.3 µM (inactive). Further, the GI50 is > 100 µM (inactive) in the test on EKVX; > 100 µM (inactive) with OVCAR-5; 55 µM (inactive) in the test on KM-20L2; 48.1 µM (inactive) in the test with CCRF-CEM; 41.7 µM (inactive) in the test with UO-31; 54.2 µM (inactive) with U-251. Also, the GI50 with LXFL 529 was 45.3 µM (inactive).

As to `FC1OC2OC1C(OCc1ccccc1)C(OCc1ccccc1)C2OCc1ccccc1` (stereo not drawn), the GI50 in the test on SN12C is 58.6 µM (inactive); with SK-MEL-2, 71.8 µM (inactive); in the test on OVCAR-3 it was 36.8 µM (inactive); in the test with SNB-78, 61.1 µM (inactive); in the test on OVCAR-8 it was 35.4 µM (inactive); in the test with TK-10 it was 52.8 µM (inactive). Moreover, the GI50 in the test on CAKI-1 was 35.5 µM (inactive); in the test with SNB-75 it was 34.7 µM (inactive); with M19-MEL, 29.8 µM (inactive); with RXF 393, > 100 µM (inactive); in the test with KM12, 49.1 µM (inactive); in the test on EKVX, 87.7 µM (inactive). Besides, the GI50 with OVCAR-5 is > 100 µM (inactive); in the test on KM-20L2, 42.8 µM (inactive); with CCRF-CEM, 26.6 µM (inactive); with UO-31, 36.1 µM (inactive); in the test on U-251, 88.3 µM (inactive); with NCI-H226 it was 77.3 µM (inactive). Besides, the GI50 in the test with LXFL 529 is 34 µM (inactive).
